Experimental data reported in patent US5326882A, “Chemiluminescent 3-(substituted Adamant-2'-Ylidene) 1,2-dioxetanes” (Tropix, Inc., priority 1992, dated 1994).

How the values were obtained:
[1] = target: T1, alkaline phosphatase (calf intestine; Biozyme) (Bos taurus, UniProt P19111); assay: Total dephosphorylation, chemiluminescence decay (Example XIII); assay type: biochemical; conditions: 30° C., carbonate/bicarbonate buffer
T1 construct: purchased Biozyme; host or cells: calf intestine
Protocol: A comparison of the total luminescence emission from AMPPD and from the corresponding 1,2-dioxetanes whose adamant-2'-ylidene groups are monosubstituted with hydroxy (A and B isomers), chloro and bromo groups was made by carrying out total dephosphorylation experiments on each of these compounds.
An aqueous solution of the 1,2-dioxetane (4.0 mm) in 0.05M sodium carbonate/sodium bicarbonate containing 1 mM magnesium chloride was prepared and then equilibrated at 30° C. Ten μl of a 7.64×10M aqueous solution of alkaline phosphatase (calf intestine; Biozyme) was then added, and the chemiluminescence from the resulting solution was recorded using a Turner Model 20E luminometer (Turner Instruments; Sunnyvale, Calif.).
The rates of chemiluminescence decay for each of the five compounds in question, expressed in relative light units (RLU's) per minute, are given in the following table.

[2] = target: T2, alkaline phosphatase-labeled DNA probe (Bos taurus, UniProt P19111); assay: Alkaline phosphatase-labeled DNA probe detection in membrane with and without BDMQ blocking step (Example XV); conditions: for Detection limit (in picograms DNA) 5. min. exp.: five minute exposure 40 minutes after dioxetane addition; for Detection limit (in picograms DNA) 1 min. exp.: one minute exposure 77 minutes after dioxetane addition
T2 construct: purchased Tropix, Inc
Protocol: pBr 322 plasmid (4700 bp) was subjected to a nick translation process using a Trans-Light kit (Tropix, Inc., Bedford, Mass.) to generate a mixture of biotinylated single stranded polynucleotides of 200-2000 bps in length.
This mixture was dotted onto a dry BIODYNE A membrane as five parallel columns of dots of the following concentrations:
The membrane was subjected to ultraviolet irradiation (UVP Mineral Light; UVP, San Gabriel, Calif.) for 3 minutes to fix the DNA to the surface of the membrane, then air dried. Next, the membrane was blocked in 0.2% casein/0.1% Tween 20 detergent in PBS for 1 hour, following which 1/5000 diluted avidin-alkaline phosphatase conjugate (Tropix, Inc.) in 0.2% casein in PBS was added. The membrane was then incubated for 30 minutes, washed three times (for 5 minutes each time) in 0.2% casein/0.1% Tween 20 detergent in PBS and washed once for five minutes in aqueous 0.1M diethanolamine containing 1 mm magnesium chloride and 0.02% sodium azide, pH 10.0 (substrate buffer).
Next, the five columns of rows of dots 1-5 were individually cut from the membrane ("strips 1-5"), as were the five columns of rows of dots 6-10 ("strips 6-10"). Strips 1-5 were washed with substrate buffer for 30 minutes. Strips 6-10 were blocked in 0.1% BDMQ in substrate buffer for 30 minutes. Both sets of strips were then incubated for 5 minutes in substrate buffer, then individually incubated for five minutes in aqueous solutions (0.25 mM) of 1,2-dioxetanes as indicated below:
All strips were then placed in camera luminometers and exposed on Polaroid Type 612 instant black and white film.

[3] = target: T3, alkaline phosphatase (Bos taurus, UniProt P19111); assay: Alkaline phosphatase detection limits, LabSystems Luminoskan (Example XXV); assay type: biochemical
Protocol: The detection means for alkaline phosphatase with different chemiluminescent 1,2-dioxetane substrates were determined as follows: Duplicates of serial dilutions (1 to 3) of alkaline phosphates were incubated at room temperature with 0.4 mM dioxetane in 0.1 M diethanolamine, 1 mM MgCl2, pH 10.0, containing 1 mg/ml of either of the polymeric enhancers Enhancer 1 or Enhancer 2, in […].
Following either a 5 or a 20 minute incubation with a substrate, the chemiluminescence intensity was measured as a 5 second integrated Relative Light Units (RLU) and plotted as in FIG. 10. […] The alkaline phosphatase concentrations at twice background were used as the detection limits in Table 5.
The luminometer used in this example was LabSystems Luminoskan microtiter plate reader.

[4] = target: T3, alkaline phosphatase; assay: Alkaline phosphatase detection limits, Wilj microtiter plate luminometer (Example XXVI); assay type: biochemical; conditions: 23 MINUTE INCUBATION
[5] = target: T3, alkaline phosphatase; assay: Half-time to plateau at low alkaline phosphatase concentration (Example XLI); assay type: biochemical; conditions: 0.4 mM dioxetane at pH 10.0, 31.5° C., 2.53 × 10^-13 M alkaline phosphatase
[6] = BDMQ blocking step, listed as OH-Adamant-2'-ylidene (A isomer)
[7] = SAPPHIRE II, 5 MINUTE INCUBATION
[8] = SAPPHIRE II, 20 MINUTE INCUBATION
[9] = BDMQ blocking step, listed as OH-Adamant-2'-ylidene (B isomer)

T3 sequence (P19111 20-506 limits assumed): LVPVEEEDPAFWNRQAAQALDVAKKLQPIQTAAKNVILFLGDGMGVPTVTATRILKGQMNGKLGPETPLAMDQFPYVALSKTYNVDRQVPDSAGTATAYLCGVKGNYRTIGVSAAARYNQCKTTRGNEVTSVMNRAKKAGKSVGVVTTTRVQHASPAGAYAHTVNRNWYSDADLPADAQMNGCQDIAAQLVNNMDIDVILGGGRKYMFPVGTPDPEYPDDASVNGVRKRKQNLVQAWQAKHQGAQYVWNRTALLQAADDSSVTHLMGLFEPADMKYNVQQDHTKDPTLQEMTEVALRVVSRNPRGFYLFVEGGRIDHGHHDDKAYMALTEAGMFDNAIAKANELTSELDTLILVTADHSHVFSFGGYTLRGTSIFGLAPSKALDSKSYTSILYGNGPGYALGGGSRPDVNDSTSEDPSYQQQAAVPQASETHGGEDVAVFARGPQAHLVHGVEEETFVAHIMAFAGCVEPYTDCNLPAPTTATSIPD
T1 sequence (P19111 20-506 limits assumed): as above
T2 sequence (P19111 20-506 limits assumed): as above
T2 sequence (P02701 25-152 partner): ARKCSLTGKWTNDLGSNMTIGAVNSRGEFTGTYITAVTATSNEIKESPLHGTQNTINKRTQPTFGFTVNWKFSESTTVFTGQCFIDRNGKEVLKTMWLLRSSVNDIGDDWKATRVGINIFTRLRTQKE

Structure (SMILES) | Detection limit (in picograms DNA) 5. min. exp. ([2]; no BDMQ blocking step) [picograms DNA] | Alkaline phosphatase detection limit (at 2× background) [3, 7] [pM] | Alkaline phosphatase detection limit (at 2× background) [3, 8] [pM] | Alkaline phosphatase detection limit (at 2× background) ([3]; SAPPHIRE, 5 MINUTE INCUBATION) [pM] | Alkaline phosphatase detection limit (at 2× background) ([3]; SAPPHIRE, 20 MINUTE INCUBATION) [pM] | Alkaline phosphatase detection limit (at 2× background) ([4]; SAPPHIRE II) [pM] | Alkaline phosphatase detection limit (at 2× background) ([4]; SAPPHIRE) [pM] | Total Decay Time [1] [min] | Decay Rate I ([1]; RLU's per minute) [RLU's per minute] | Decay Rate II ([1]; RLU's per minute) [RLU's per minute] | Detection limit (in picograms DNA) 5. min. exp. ([2]; BDMQ blocking step) [picograms DNA] | Detection limit (in picograms DNA) 1 min. exp. ([2]; BDMQ blocking step) [picograms DNA] | Detection limit (in picograms DNA) 1 min. exp. ([2]; no BDMQ blocking step) [picograms DNA] | other results
COC1(c2cccc(OP(=O)(O)O)c2)OOC12C1CC3CC2CC(O)(C3)C1 (single isomer, unassigned) [A-OH-AMPPD, disodium 3-(4-methoxyspiro-[1,2-dioxetane-3,2'-(5'-hydroxy)tricyclo[3.3.1.1^3,7]decan]-4-yl)phenyl phosphate] | 5.000 | 0.0014 | 0.00031 | 0.0031 | 0.0011 | 0.0014 | 0.0015 | – | – | – | – | – | – | Total Decay Time ([1]; listed as OH-Adamant-2'-ylidene (A isomer)): 9 min; Decay Rate I ([1]; RLU's per minute, listed as OH-Adamant-2'-ylidene (A isomer)): 1.3 RLU's per minute; Detection limit (in picograms DNA) 5. min. exp. [2, 6]: 0.625 picograms DNA; Detection limit (in picograms DNA) 1 min. exp. [2, 6]: 2.500 picograms DNA; Detection limit (in picograms DNA) 1 min. exp. ([2]; no BDMQ blocking step, listed as OH-Adamant-2'-ylidene (A isomer)): 10.000 picograms DNA; HALF-TIME TO PLATEAU (min.) AL LOW ALK PHOS CONCENTRATION ([5]; listed as HO-AMPPD-A): 0.93 min
COC1(c2cccc(OP(=O)(O)O)c2)OOC12C1CC3CC2CC(O)(C3)C1 (single isomer, unassigned) [B-OH-AMPPD, disodium 3-(4-methoxyspiro-[1,2-dioxetane-3,2'-(5'-hydroxy)tricyclo[3.3.1.1^3,7]decan]-4-yl)phenyl phosphate] | 5.000 | – | – | – | – | – | – | – | – | – | – | – | – | Total Decay Time ([1]; listed as OH-Adamant-2'-ylidene (B isomer)): 10 min; Decay Rate I ([1]; RLU's per minute, listed as OH-Adamant-2'-ylidene (B isomer)): 1.5 RLU's per minute; Detection limit (in picograms DNA) 5. min. exp. [2, 9]: 1.250 picograms DNA; Detection limit (in picograms DNA) 1 min. exp. [2, 9]: 5.000 picograms DNA; Detection limit (in picograms DNA) 1 min. exp. ([2]; no BDMQ blocking step, listed as OH-Adamant-2'-ylidene (B isomer)): 20.000 picograms DNA; HALF-TIME TO PLATEAU (min.) AL LOW ALK PHOS CONCENTRATION ([5]; listed as HO-AMPPD-B): 1.03 min
COC1(c2cccc(OP(=O)(O)O)c2)OOC12C1CC3CC(C1)CC2C3 (stereo not drawn) [AMPPD, 3-(4-methoxyspiro[1,2-dioxetane-3,2'-triyclo[3.3.1.1^3,7]decan]-4-yl)phenyl phosphate, reference compound] | 2.500 | 0.0025 | 0.0011 | 0.0038 | 0.0014 | 0.0013 | 0.0019 | 60 | 0.1 | 0.3 | 0.625 | 1.250 | 5.000 | Decay Rate III ([1]; RLU's per minute): 0.8 RLU's per minute; HALF-TIME TO PLATEAU (min.) AL LOW ALK PHOS CONCENTRATION [5]: 1.97 min
COC1(c2cccc(OP(=O)(O)O)c2)OOC12C1CC3CC2CC(Cl)(C3)C1 (stereo not drawn) [Cl-AMPPD, disodium 3-(4-methoxyspiro-[1,2-dioxetane-3,2'-(5'-chloro)tricyclo[3.3.1.1^3,7]decan]-4-yl) phenyl phosphate] | 1.250 | 0.0008 | 0.00043 | 0.0014 | 0.0005 | 0.00021 | 0.000705 | 15 | 1.2 | 5.5 | 0.313 | 0.313 | 1.250 | –
